{"source": "patent US11180474B2", "about": "(BRISTOL-MYERS SQUIBB COMPANY, priority 2016, dated 2021)", "key": {"human TLR9": {"biological_target": "T1, human TLR9 (Homo sapiens, UniProt Q9NR96)", "T1 construct": "host or cells: HEK-Blue cells", "T1 sequence (Q9NR96 26-1032)": "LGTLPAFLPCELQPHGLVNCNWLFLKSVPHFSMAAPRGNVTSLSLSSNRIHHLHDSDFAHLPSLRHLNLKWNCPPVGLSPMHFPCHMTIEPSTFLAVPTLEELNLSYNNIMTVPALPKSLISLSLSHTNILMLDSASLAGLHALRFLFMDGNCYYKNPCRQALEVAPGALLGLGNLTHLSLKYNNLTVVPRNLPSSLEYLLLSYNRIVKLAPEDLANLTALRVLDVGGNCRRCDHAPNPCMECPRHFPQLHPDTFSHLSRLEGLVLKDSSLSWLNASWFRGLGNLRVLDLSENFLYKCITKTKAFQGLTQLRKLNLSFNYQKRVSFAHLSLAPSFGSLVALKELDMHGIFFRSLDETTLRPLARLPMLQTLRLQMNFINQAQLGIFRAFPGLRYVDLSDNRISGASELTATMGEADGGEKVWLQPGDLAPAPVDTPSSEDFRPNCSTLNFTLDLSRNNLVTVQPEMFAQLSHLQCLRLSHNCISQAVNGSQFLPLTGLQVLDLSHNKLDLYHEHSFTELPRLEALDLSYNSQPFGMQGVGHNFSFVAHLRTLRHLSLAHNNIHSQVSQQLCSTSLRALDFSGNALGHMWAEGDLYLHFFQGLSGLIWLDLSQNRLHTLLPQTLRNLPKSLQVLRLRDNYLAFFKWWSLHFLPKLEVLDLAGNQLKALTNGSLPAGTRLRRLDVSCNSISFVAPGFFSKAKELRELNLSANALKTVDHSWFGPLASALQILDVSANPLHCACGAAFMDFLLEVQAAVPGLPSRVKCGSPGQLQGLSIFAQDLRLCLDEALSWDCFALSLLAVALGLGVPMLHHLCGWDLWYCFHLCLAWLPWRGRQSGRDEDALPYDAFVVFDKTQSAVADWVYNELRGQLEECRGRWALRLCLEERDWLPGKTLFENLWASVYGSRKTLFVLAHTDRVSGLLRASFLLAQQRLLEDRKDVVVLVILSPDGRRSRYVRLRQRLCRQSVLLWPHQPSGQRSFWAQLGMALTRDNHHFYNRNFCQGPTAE", "test": "TLR9 inhibition reporter assay (HEK-Blue cells, SEAP reporter, ODN2006 stimulation)", "format": "cell-based", "settings": "HEK-Blue cells overexpressing human TLR9, ODN2006 5 nM", "procedure,_shortened": "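Compound treatment: 30 min, RT, 0.05 nM–50 μM final. Agonist: TLR7 gardiquimod 7.5 μM; TLR8 R848 15.9 μM; TLR9 ODN2006 5 nM. Incubation 22 h, 37 °C, 5% CO2. Readout SEAP, HEK-Blue Detection.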"}, "TLR7": {"system": "TLR7", "test": "In vivo mouse TLR7 PD model (gardiquimod challenge, plasma IL-6)", "settings": "oral", "procedure": "(§1) In Vivo Mouse TLR7 and TLR9 PD Model:\n(§2) Adult male C57BL/6 mice were used for the experiments. Mice (7 to 10 per group) were randomized into different treatment groups based on body weight. Mice from the respective treatment groups were administered orally with vehicle or test compound. Thirty min after the oral administration of vehicle or test compound, mice were challenged with intraperitoneal injection of gardiquimod for TLR7 PD model and CpG-ODN for TLR9 PD model. Ninety minutes after gardiquimod injection and 120 minutes after CpG-ODN injection, mice were bled under isoflurane anaesthesia and plasma IL-6 level was estimated by using commercially available ELISA kit (BD Biosciences). At the end of experiment, mean cytokine data was plotted and one way ANOVA with Dunnett's test was performed to calculate the significance of test compound treated group vs. vehicle control group. Percent inhibition of cytokine induction was calculated for test compound treated group vs vehicle control group."}, "TLR9": {"system": "TLR9", "test": "In vivo mouse TLR9 PD model (CpG-ODN challenge, plasma IL-6)", "settings": "oral", "procedure": "as §1, §2"}, "[1]": {"system": "MRL/lpr model of Systemic Lupus Erythematosus", "test": "MRL/lpr model of systemic lupus erythematosus (SLE)", "format": "in vivo, mouse", "settings": "MRL/lpr mice, oral once daily 8 weeks", "procedure": "MRL/Lpr Model of Systemic Lupus Erythematosus (SLE) Male MRL/lpr mice of 12-14 weeks age were screened and randomized based on the titers of anti-dsDNA antibodies and urinary NGAL (Neutrophil Gelatinase Associated Lipocalin). Mice were treated orally, once daily for 8 weeks with vehicle or test compound. The effect of test compound on disease severity was assessed by measuring end points including proteinuria, urinary-NGAL, anti-dsDNA Ab titer, and lymphadenopathy. These end points were assessed before the start of treatment and after 4 and 8 weeks of treatment. At the end of experiment, all mice were euthanized by CO2 asphyxiation and kidney samples were subjected for histology. At the end of experiment, one way ANOVA with Dunnett's test was performed to calculate the significance of test compound treated group vs. vehicle control group. Percent reduction in disease severity was calculated for each parameter, for test compound treated group vs vehicle control group. A cumulative disease score and the percent reduction in cumulative disease score was calculated by considering the average inhibition in all parameters except lymphadenopathy to reflect the impact on the overall severity of disease progression."}}, "note": "pIC50: −log10 of the molar value."}
{"molecule": "COc1ccc(-c2[nH]c3ccc(C4CCN(C(=O)CN(C)C)CC4)cc3c2C(C)C)cc1OC", "note": "[Example 209, 1-(4-(2-(3,4-dimethoxyphenyl)-3-isopropyl-1H-indol-5-yl)piperidin-1-yl)-2-(dimethylamino)ethan-1-one]", "values": [{"measurement": "pIC50", "setting": "human TLR9", "value": 5.78}, {"measurement": "% inhibition of IL6", "setting": "TLR7; dose 0.001 mg/kg", "value": 11, "unit": "%"}, {"measurement": "% inhibition of IL6", "setting": "TLR7; dose 0.01 mg/kg", "value": 21, "unit": "%"}, {"measurement": "% inhibition of IL6", "setting": "TLR7; dose 0.1 mg/kg", "value": 61, "unit": "%"}, {"measurement": "% inhibition of IL6", "setting": "TLR7; dose 1 mg/kg", "value": 86, "unit": "%"}, {"measurement": "% inhibition of IL6", "setting": "TLR9; dose 1 mg/kg", "value": 29, "unit": "%"}, {"measurement": "% inhibition of IL6", "setting": "TLR9; dose 10 mg/kg", "value": 37, "unit": "%"}, {"measurement": "% inhibition of IL6", "setting": "TLR9; dose 30 mg/kg", "value": 37, "unit": "%"}, {"measurement": "% inhibition of IL6", "setting": "TLR9; dose 100 mg/kg", "value": 51, "unit": "%"}, {"measurement": "% inhibition Anti-dsDNA antibody titer", "setting": "[1]; dose 1 mg/kg", "value": 44, "unit": "%"}, {"measurement": "% inhibition Cumulative score", "setting": "[1]; dose 1 mg/kg", "value": 42, "unit": "%"}, {"measurement": "% inhibition IL-10", "setting": "[1]; dose 1 mg/kg", "value": 10, "unit": "%"}, {"measurement": "% inhibition IL-12p40", "setting": "[1]; dose 1 mg/kg", "value": 13, "unit": "%"}, {"measurement": "% inhibition Lymphadenopathy", "setting": "[1]; dose 1 mg/kg", "value": 35, "unit": "%"}, {"measurement": "% inhibition Proteinuria", "setting": "[1]; dose 1 mg/kg", "value": 46, "unit": "%"}, {"measurement": "% inhibition Urinary NGAL", "setting": "[1]; dose 1 mg/kg", "value": 36, "unit": "%"}, {"measurement": "% inhibition Anti-dsDNA antibody titer", "setting": "[1]; dose 2 mg/kg", "value": 57, "unit": "%"}, {"measurement": "% inhibition Cumulative score", "setting": "[1]; dose 2 mg/kg", "value": 55, "unit": "%"}, {"measurement": "% inhibition IL-10", "setting": "[1]; dose 2 mg/kg", "value": 22, "unit": "%"}, {"measurement": "% inhibition IL-12p40", "setting": "[1]; dose 2 mg/kg", "value": 24, "unit": "%"}, {"measurement": "% inhibition Lymphadenopathy", "setting": "[1]; dose 2 mg/kg", "value": 38, "unit": "%"}, {"measurement": "% inhibition Proteinuria", "setting": "[1]; dose 2 mg/kg", "value": 57, "unit": "%"}, {"measurement": "% inhibition Urinary NGAL", "setting": "[1]; dose 2 mg/kg", "value": 52, "unit": "%"}, {"measurement": "% inhibition Anti-dsDNA antibody titer", "setting": "[1]; dose 5 mg/kg", "value": 67, "unit": "%"}, {"measurement": "% inhibition Cumulative score", "setting": "[1]; dose 5 mg/kg", "value": 61, "unit": "%"}, {"measurement": "% inhibition IL-10", "setting": "[1]; dose 5 mg/kg", "value": 36, "unit": "%"}, {"measurement": "% inhibition IL-12p40", "setting": "[1]; dose 5 mg/kg", "value": 18, "unit": "%"}, {"measurement": "% inhibition Lymphadenopathy", "setting": "[1]; dose 5 mg/kg", "value": 50, "unit": "%"}, {"measurement": "% inhibition Proteinuria", "setting": "[1]; dose 5 mg/kg", "value": 61, "unit": "%"}, {"measurement": "% inhibition Urinary NGAL", "setting": "[1]; dose 5 mg/kg", "value": 54, "unit": "%"}, {"measurement": "% inhibition Anti-dsDNA antibody titer", "setting": "[1]; dose 7.5 mg/kg", "value": 70, "unit": "%"}, {"measurement": "% inhibition Cumulative score", "setting": "[1]; dose 7.5 mg/kg", "value": 67, "unit": "%"}, {"measurement": "% inhibition IL-10", "setting": "[1]; dose 7.5 mg/kg", "value": 36, "unit": "%"}, {"measurement": "% inhibition IL-12p40", "setting": "[1]; dose 7.5 mg/kg", "value": 27, "unit": "%"}, {"measurement": "% inhibition Lymphadenopathy", "setting": "[1]; dose 7.5 mg/kg", "value": 58, "unit": "%"}, {"measurement": "% inhibition Proteinuria", "setting": "[1]; dose 7.5 mg/kg", "value": 68, "unit": "%"}, {"measurement": "% inhibition Urinary NGAL", "setting": "[1]; dose 7.5 mg/kg", "value": 62, "unit": "%"}]}
